Test results: patent US6953786B2, “Compositions comprising plant-derived polyphenolic compounds and inhibitors of reactive oxygen species and methods of using thereof” (The Regents of the University of California, priority 2002, dated 2005)

Experiments:
Mia PACA-2 cells = experiment: Oligonucleosomal DNA fragmentation by cell death ELISA; format: cell-based, human; details: Mia PACA-2, 72 hours, with serum; DPI 15 μM, Tiron 10 mM, genistein 100 μM, trans-resveratrol 100 or 50 μM
Protocol: Mia PACA-2 cells were cultured for 72 hours in the presence of serum with or without 15 μM DPI, 10 mM Tiron, 100 μM genistein, 100 μM or 50 μM trans-resveratrol, or a combination thereof. Oligonucleosomal DNA fragmentation was measured in cell lysates by cell death ELISA.
Annexin staining was conducted as described above. Cells were collected, washed with PBS, and centrifuged for 10 min at 200×g. DNA fragmentation was determined using Cell Death Detection ELISA Plus kit (Roche Molecular Biochemicals).
To determine the role of caspases in the effects of combinations of agents on apoptosis, the effects of caspase-3 activity (DEVDase activity) as well as the effect of the broad spectrum caspase inhibitor, Z-VAD, on apoptosis was measured. Specifically, Mia PACA-2 cells were cultured for 72 hours in the presence of serum with or without 100 μM Z-VAD, 15 μM DPI, 100 μM trans-resveratrol, 100 μM genistein, a combination of trans-resveratrol and DPI, and a combination of genistein and DPI. DEVDase activity was measured in whole cell lysates with a fluorimetric assay. DNA fragmentation was measured in cell lysates by cell death ELISA.
In particular, Mia PACA-2 cells were cultured for 72 hours in the presence of serum with or without 50 μM trans-resveratrol (RS), 15 μM DPI, a combination of DPI and trans-resveratrol (RS+DPI), 10 μM MG-132 alone and in combination with RS, DPI, and RS+DPI. Internucleosomal DNA fragmentation was measured in cell lysates by cell death ELISA.

PARP [1] = experiment: PARP proteolysis (Western blot); format: cell-based, rat; details: BSp73AS, 6 hours, 100 μM
Protocol: (§1) BSp73AS cells were cultured for 6 hours and Mia PACA-2 cells were cultured for 24 hours in the presence or absence of 100 μM of each rutin, quercetin or trans-resveratrol and with or without 50 μM of each […]. The cells were washed twice with PBS and lysed by incubating for 20 minutes at 4° C. in lysis buffer comprising 0.15 M NaCl, 50 mM Tris (pH 7.2), 1% deoxycholic acid (wt/vol), 1% Triton X-100 (wt/vol), 0.1% […] (wt/vol) and 1 mM PMSF, as well as 5 μg/ml each of protease inhibitors, pepstatin, leupeptin, chymostatin, antipain, and aprotinin. Then the cell lysates were centrifuged for 20 minutes at 15,000 g at 4° C. The supernatants were separated by 4-20% SDS-PAGE for 2 hours at 120 V using precast Tris-glycine gels and a Mini-Cell gel apparatus (Novex, San Diego, Calif.). Separated proteins were electrophoretically transferred to a nitrocellulose membrane for 2 hours at 30 V using a Novex Blot Module (Novex, San Diego, Calif.). Nonspecific binding was blocked by 1 hour incubation of nitrocellulose membranes in 5% (wt/vol) nonfat dry milk in Tris-buffered saline (TBS; pH 7.5). Blots were then incubated overnight at 4° C. with rabbit polyclonal antibody against poly (ADP-ribose) polymerase (PARP) (Santa Cruz Biotechnology, Santa Cruz, Calif.) (1;3,000) in an antibody buffer comprising (1% (wt/vol) non-fat dry milk in TTBS (0.05% vol/vol) Tween-20 in TBS), washed 3 times with TTBS and finally incubated for 1 hour with a peroxidase-labeled secondary antibody in the antibody buffer. Blots were developed for visualization using ECL detection kit. To test for equal protein loading, the blots were stripped and re-probed with an antibody against tubulin. When processing of a protein was measured, a decrease in unprocessed full-length form was measured concomitantly with the increase in the cleaved, active form. The experiment was repeated 3 times with similar results.

PARP [2] = experiment: PARP proteolysis (Western blot); format: cell-based, human; details: Mia PACA-2, 24 hours, 100 μM
Protocol: as §1

caspase-3 [3] = experiment: Caspase-3 activity, fluorogenic assay with DEVD-AMC; format: cell-based, rat; details: BSp73AS, up to 6 hours, 100 μM, no serum (FIGS. 6B, 6C)
Protocol: To determine whether a polyphenolic compound activates caspase-3 activity in a time-dependent manner, the following assay was conducted. BSp73AS cells were cultured for 0, 1, 3, and 6 hours and Mia PACA-2 cells were cultured in the absence of serum or growth factors for 0, 1, 4, 6, and 24 hours in the presence of 100 μM or quercetin, trans-resveratrol, rutin, or control. Caspase-3 activity was measured in cell lysates with a fluorogenic assay using DEVD-AMC as a substrate. The results were normalized to the DEVDase activity in untreated cells.
To determine whether quercetin activates caspase-3 activity in a dose-dependent manner, the following assay was conducted. Cells were cultured for 6 hours in the absence of serum or growth factors in the presence of 0, 10, 20, 50, and 100 μM of quercetin. Caspase-3 activity was measured in cell lysates with a fluorogenic assay using DEVD-AMC as a substrate. The results were normalized to the DEVDase activity in untreated cells.

caspase-3 [4] = experiment: Caspase-3 (DEVDase) activity, fluorogenic assay with DEVD-AMC; format: cell-based, human; details: Mia PACA-2, up to 24 hours, 100 μM, no serum (FIG. 7B)
Protocol: A fluorimetric assay for caspase-3 activity was conducted. […] Cytosolic protein extracts (supernatants) were collected, protein concentrations were determined and the extracts were aliquoted and stored at −80° C. […] The reaction was started by addition of caspase-3 substrate, the readings were taken at 0, 60, 90, and 120 minutes. Fluorescence was calibrated using a standard curve for AMC. The data were expressed as mol AMC/mg protein/min.
Mia PACA-2 cells were cultured in the absence of serum or growth factors for 24 hours in the presence or absence of quercetin (100 μM), trans-resveratrol (100 μM), Z-VAD FMK (50 μM), cyclosporin A (5 μM) and/or aristolochic acid (50 μM). […] The reaction was started by addition of caspase-3 substrate, the readings were taken at 0, 60, 90, and 120 minutes. Fluorescence was calibrated using a standard curve for AMC. […] The data were expressed as mol AMC/mg protein/min. […]

NF-κB = NF-κB DNA binding activity (EMSA); format: cell-based, rat; details: BSp73AS, 6 hours; polyphenols 100 μM, MG-132 20 μM
Protocol: In order to determine the role of activated NF-κB in the regulation of apoptosis caused by the polyphenolic compound, the following assay was conducted. BSp73AS cells were cultured for 6 hours and Mia PACA-2 cells were cultured in the absence of serum or growth factors for 24 hours in the absence (controls) or presence of rutin, quercetin, trans-resveratrol, or genistein, each at 100 μM and 20 μM proteosome inhibitor MG-132. Nuclear proteins were isolated and analyzed for NF-κB DNA binding activity with electrophoretic mobility shift assay (EMSA). Specifically, aliquots of nuclear extracts with equal amount of protein, about 2 to about 10 μg, were mixed in 20 μl reactions with a buffer comprising 10 mM HEPES (pH 7.6), 50 mM KCl, 0.1 mM EDTA, 1 mM DTT, 10% (vol/vol) glycerol and 3 μg poly[d (I-C)]. After aliquots were equilibrated on ice for 5 minutes, binding reactions were stared by addition of 20-60,000 counts/min (20 fM) of ^32P-labeled DNA probes and allowed to proceed for 25-30 minutes at room temperature or up to 1 hour on ice. The oligonucleotide probe containing the κB binding motif (underlined) was annealed to the complementary oligonucleotide with a 5′-G overhang and end-labeled using Klenow DNA polymerase I. The samples were electrophoresed at room temperature in 0.5×TBE buffer (1×TBE 89 mM Tris base, 89 mM boric acid and 2 mM EDTA) on nondenaturing 4.5% polyacrylamide gel at 200 V. Gels were dried and directly analyzed in the PhosphorImager (Molecular Dynamics, Sunnyvale, Calif.). The experiment was repeated twice.

Structure (SMILES) | oligonucleosomal DNA fragmentation (apoptosis) (Mia PACA-2 cells) | PARP cleavage (PARP [1]) | PARP cleavage (PARP [2]) | caspase-3 activation (caspase-3 [3]) | caspase-3 activation (caspase-3 [4]) | NF-κB activation (DNA binding) (NF-κB)
O=c1c(-c2ccc(O)cc2)coc2cc(O)cc(O)c12 [genistein] | either no or small effects | – | – | – | – | –
O=c1c(O)c(-c2ccc(O)c(O)c2)oc2cc(O)cc(O)c12 [quercetin] | – | cleaved to its activated form | cleaved to its activated form | caused caspase-3 activation | caused caspase-3 activation | inhibit NF-κB activation
Oc1ccc(/C=C/c2cc(O)cc(O)c2)cc1 [trans-resveratrol] | either no or small effects | cleaved to its activated form | cleaved to its activated form | caused caspase-3 activation | caused caspase-3 activation | inhibit NF-κB activation
